The source of these data is ChEMBL document CHEMBL5357007, “Withanolides from Physalis angulata var. villosa and the Relative Configurational Revision of Some Known Analogs” (J Nat Prod, 2024).

pIC50: −log10 of the molar value. A value given as a limit tells only on which side of the number the result lay.

What all share (format): functional, cell-based
One assay concerns HCT-116. The assay is described as follows: Cytotoxicity against human HCT-116 cells assessed as inhibition of cell growth incubated for 72 hrs by CCK-8 assay. The following applies: HCT-116, 72 h. For orientation: Tetrazolium assays rely on reduction of a dye to a coloured formazan, in cell work by metabolically active cells.
The next assay concerns MDA-MB-231. The experiment in a line: Cytotoxicity against human MDA-MB-231 cells assessed as inhibition of cell growth incubated for 72 hrs by CCK-8 assay. Particulars: MDA-MB-231, 72 h.
The next assay relates to A549. The assay is described as follows: Cytotoxicity against human A549 cells assessed as inhibition of cell growth incubated for 72 hrs by CCK-8 assay. The following applies: A549, 72 h.

As for `CC(=O)O[C@H]1C=C([C@H](C)[C@H]2CC(C)=C(C)C(=O)O2)[C@@]2(C)CC[C@H]3[C@@H](C[C@H]4O[C@]45C[C@@H](O)CC(=O)[C@]35C)[C@@]12O`, the negative-log IC50 (pIC50) in the assay with HCT-116, in the assay with MDA-MB-231 and in the assay with A549 was < 5.00 each time.
On to `CCO[C@H]1CC(=O)[C@]2(C)[C@H]3CC[C@]4(C)C([C@H](C)[C@H]5CC(C)=C(C)C(=O)O5)=C[C@H](OC(C)=O)[C@]4(O)[C@@H]3C[C@H]3O[C@]32[C@H]1O`, for which the pIC50 in the assay on HCT-116, in the assay on MDA-MB-231 and in the assay on A549 was < 5.00 in each case.
Regarding `CC(=O)O[C@H]1C[C@H]([C@H](C)[C@H]2CC(C)=C(C)C(=O)O2)[C@@]2(C)CCC3[C@@H](C[C@@H](O)C4=CC=CC(=O)[C@@]43C)[C@@]12O` (stereo not given in full), the pIC50 in the assay on HCT-116, in the assay with MDA-MB-231 and in the assay with A549 was < 5.00 in each case.
`CC(=O)O[C@H]1[C@H](O)[C@](O)([C@H](C)[C@H]2CC(C)=C(C)C(=O)O2)[C@@]2(C)CC[C@H]3[C@@H](C[C@H]4O[C@]45[C@@H](O)C=CC(=O)[C@]35C)[C@@]12O`: the negative logarithm of the IC50 (pIC50) is 5.14 in the assay on HCT-116, 5.04 in the assay with MDA-MB-231 and < 5.00 in the assay with A549.
With `CC(=O)O[C@H]1[C@@H]2O[C@]2([C@@H](C)[C@H]2CC(C)=C(C)C(=O)O2)[C@@]2(C)CC[C@H]3[C@@H](C[C@H](Cl)[C@]4(O)CC=CC(=O)[C@]34C)[C@@]12O`, the pIC50 in the assay with HCT-116, in the assay on MDA-MB-231 and with A549 was < 5.00 each time.
In the case of `CCO[C@H]1CC(=O)[C@]2(C)[C@H]3CC[C@]4(C)[C@@H]([C@H](C)[C@H]5CC(C)=C(C)C(=O)O5)C[C@H](O)[C@]4(O)[C@@H]3C[C@H]3O[C@]32[C@H]1O`, the pIC50 in the assay on HCT-116, in the assay on MDA-MB-231 and with A549 was < 5.00 in each case.
For the compound `CC(=O)O[C@H]1C=C([C@H](C)[C@H]2CC(C)=C(C)C(=O)O2)[C@@]2(C)CC[C@H]3[C@@H](CC(=O)C4CC=CC(=O)[C@@]43C)[C@@]12O` (stereo not given in full), the results for the pIC50 in the assay with HCT-116, in the assay on MDA-MB-231 and in the assay on A549 were 5.04, < 5.00 and < 5.00, respectively.
Consider `CC(=O)O[C@H]1C[C@H]([C@H](C)[C@@H]2OC(=O)C(C)=C(C)[C@@H]2O)[C@@]2(C)CC[C@H]3[C@@H](C[C@H]4O[C@]45[C@@H](O)C=CC(=O)[C@]35C)[C@@]12O`, for which the pIC50 with HCT-116 was 5.07; in the assay with MDA-MB-231, < 5.00; in the assay with A549 it was 5.01.
On to `CCO[C@H]1CC(=O)[C@]2(C)[C@H]3CC[C@@]4(C)[C@](O)([C@@H](OC(C)=O)C[C@@]4(O)[C@H](C)[C@H]4CC(C)=C(C)C(=O)O4)[C@@H]3C[C@H]3O[C@]32C1`, for which the pIC50 in the assay with HCT-116, with MDA-MB-231 and in the assay with A549 was < 5.00 in each case.
For the compound `CCO[C@H]1CC(=O)[C@]2(C)[C@H]3CC[C@@]4(C)[C@@](O)([C@@H]3C[C@H]3O[C@]32[C@H]1O)[C@@H](OC(C)=O)[C@@H]1O[C@@]14[C@H](C)[C@H]1CC(C)=C(C)C(=O)O1`, the pIC50 with HCT-116, in the assay with MDA-MB-231 and in the assay on A549 was < 5.00 each time.
For `CC(=O)O[C@H]1C=C([C@H](C)[C@H]2CC(C)=C(C)C(=O)O2)[C@@]2(C)[C@H](O)C[C@H]3[C@@H](C[C@@H](O)[C@@]4(O)CC=CC(=O)[C@]34C)[C@@]12O`, the pIC50 in the assay with HCT-116, in the assay with MDA-MB-231 and with A549 was < 5.00 throughout.
Consider `CO[C@H]1C=C([C@H](C)[C@H]2CC(C)=C(C)C(=O)O2)[C@@]2(C)CC[C@H]3[C@@H](C[C@@H](O)[C@@]4(Cl)CC=CC(=O)[C@]34C)[C@@]12O`, for which the negative logarithm of the IC50 (pIC50) in the assay on HCT-116 is 5.06; in the assay on MDA-MB-231, 5.03; in the assay with A549 it was < 5.00.
Turning to `CCO[C@H]1CC(=O)[C@]2(C)[C@H]3CC[C@]4(C)C([C@H](C)[C@H]5CC(C)=C(C)C(=O)O5)=C[C@H](OC(C)=O)[C@]4(O)[C@@H]3C[C@H]3O[C@]32C1`, the pIC50 in the assay with HCT-116, in the assay on MDA-MB-231 and with A549 was < 5.00 throughout.
On to `CC(=O)O[C@H]1C[C@](O)([C@H](C)[C@H]2CC(C)=C(C)C(=O)O2)[C@@]2(C)CC[C@H]3[C@@H](C[C@H]4O[C@]45[C@@H](O)C=CC(=O)[C@]35C)[C@@]12O`, for which the pIC50 with HCT-116 is 5.74; in the assay on MDA-MB-231 it was 5.35; in the assay on A549, 5.23.
The matching figures for `CC1=C(C)C(=O)O[C@@H]([C@@H](C)C2=C[C@H](O)[C@]3(O)[C@@H]4C[C@H]5O[C@]56[C@@H](O)CCC(=O)[C@]6(C)[C@H]4CC[C@]23C)C1`: < 5.00, < 5.00 and < 5.00.

For orientation: pIC50 means −log10 of the IC50, conventionally taken in molar units.
